Assay results published in patent publication US12691112B2, “FGFR tyrosine kinase inhibitors for the treatment of urothelial carcinoma” (Janssen Pharmaceutica NV, priority 2019, dated 2026).
Where two headings read alike, the source gives them in different places.

Tested on: metastatic or surgically unresectable urothelial cancer harboring select FGFR genetic alterations
Conditions: 6 mg QD, chemo relapsed/refractory
From the text: The study comprises a Screening Phase (molecular screening at any time prior to first dose and study screening within 30 days of first dose), a treatment phase, and a post-treatment follow-up phase. The treatment phase comprises the period from first dose until the end-of-treatment visit. The follow-up phase extends until the subject has died, withdraws consent, is lost to follow-up, or the end of study, whichever comes first.
Included patients were adults with measurable urothelial cancer per Response Evaluation Criteria in Solid Tumors version 1.1.
Patients were required to have at least 1 FGFR2/FGFR3 mutation or fusion per central lab testing of RNA from formalin-fixed, paraffin-embedded tumor samples, using a custom reverse transcriptase polymerase chain reaction assay.
Patients were contacted every 12 weeks for survival assessment.
The study was designed to enroll 180 patients with specified FGFR alterations. Of these, ≥88 were required in the selected regimen. […] Responses were assessed by investigators and an independent radiological review committee. Progression-free survival and overall survival were estimated using Kaplan-Meier product limit method. Data from patients who were progression free and alive or with unknown status were censored at last tumor assessment. Efficacy end points were analysed at primary analysis cut-off.

[1] = FGFR fusions (excluding mutations), 2 responders
[2] = FGFR fusions (excluding mutations), n=10
[3] = FGFR mutations (excluding fusions), 22 responders
[4] = FGFR mutations (excluding fusions), n=59
[5] = FGFR mutations and fusions, 3 responders
[6] = FGFR mutations and fusions, n=4
[7] = Fusion: FGFR2-CASP7/FGFR3-BAIAP2L1, n=1
[8] = Mutation and fusion: FGFR3-G370C/FGFR2-BICC1, n=1
[9] = Mutation and fusion: FGFR3-G370C/FGFR3-TACC3 V1, n=1
[10] = Mutation and fusion: FGFR3-R248C/FGFR3-S249C/FGFR3-TACC3 V1, n=1
[11] = Mutation and fusion: FGFR3-R248C/FGFR3-TACC3 V1, n=1
[12] = Mutation: FGFR3-G370C/FGFR3-S249C, n=1
[13] = Mutation: FGFR3-R248C/FGFR3-Y373C, n=1

`COc1cc(OC)cc(N(CCNC(C)C)c2ccc3ncc(-c4cnn(C)c4)nc3c2)c1` [erdafitinib, N-(3,5-dimethoxy-phenyl)-N′-(1-methylethyl)-N-[3-(1-methyl-1H-pyrazol-4-yl)quinoxalin-6-yl]ethane-1,2-diamine] was tested, and the “Confirmed complete response (CR)” value (Any FGFR alterations, n=73) was 3 (4.1%), the “Confirmed partial response (PR)” value (Any FGFR alterations, n=73) was 24 (32.9%) and the “Disease control rate (CR + PR + SD)” value (Any FGFR alterations, n=73) was 55 (75.3%). For the same molecule, the Inevaluable (Any FGFR alterations, n=73) was 4 (5.5%), the “Progressive disease (PD)” value (Any FGFR alterations, n=73) was 14 (19.2%) and the “6-month progression-free survival rate (95% CI), among responders” value [1] was 0.50 (0.01, 0.91). The “9-month progression-free survival rate (95% CI), among responders” value [1] was 0.50 (0.01, 0.91), the “12-month progression-free survival rate (95% CI), among responders” value [1] was 0.50 (0.01, 0.91) and the “Confirmed complete response (CR)” value [2] was 0%. For the same molecule, the “Confirmed partial response (PR)” value [2] was 2 (20.0%), the “Disease control rate (CR + PR + SD)” value [2] was 9 (90.0%) and the Inevaluable [2] was 1 (10.0%). The “Objective response rate (CR + PR)” value [2] was 2 (20.0%), the “Progressive disease (PD)” value [2] was 0% and the “6-month progression-free survival rate (95% CI), among responders” value [3] was 0.41 (0.21, 0.60). For the same molecule, the “9-month progression-free survival rate (95% CI), among responders” value [3] was 0.27 (0.11, 0.46), the “12-month progression-free survival rate (95% CI), among responders” value [3] was 0.18 (0.06, 0.36) and the “Confirmed complete response (CR)” value [4] was 2 (3.4%). For the same molecule, the “Confirmed partial response (PR)” value [4] was 20 (33.9%), the “Disease control rate (CR + PR + SD)” value [4] was 43 (72.9%) and the Inevaluable [4] was 2 (3.4%). The “Objective response rate (CR + PR)” value [4] was 22 (37.3%), the “Progressive disease (PD)” value [4] was 14 (23.7%) and the “6-month progression-free survival rate (95% CI), among responders” value [5] was 0.67 (0.05, 0.95). For the same molecule, the “9-month progression-free survival rate (95% CI), among responders” value [5] was 0.67 (0.05, 0.95), the “12-month progression-free survival rate (95% CI), among responders” value [5] was 0.33 (0.01, 0.77) and the “Confirmed complete response (CR)” value [6] was 1 (25.0%). The “Confirmed partial response (PR)” value [6] was 2 (50.0%), the “Disease control rate (CR + PR + SD)” value [6] was 3 (75.0%) and the Inevaluable [6] was 1 (25.0%). The “Objective response rate (CR + PR)” value [6] was 3 (75.0%), the “Progressive disease (PD)” value [6] was 0% and the “Confirmed complete response (CR)” value [7] was 0%. The “Confirmed partial response (PR)” value [7] was 0%, the “Disease control rate (CR + PR + SD)” value [7] was 1 (100.0%) and the Inevaluable [7] was 0%. For the same molecule, the “Objective response rate (CR + PR)” value [7] was 0%, the “Progressive disease (PD)” value [7] was 0% and the “Confirmed complete response (CR)” value [8] was 1 (100.0%). For the same molecule, the “Confirmed partial response (PR)” value [8] was 0%, the “Disease control rate (CR + PR + SD)” value [8] was 1 (100.0%) and the Inevaluable [8] was 0%. The “Objective response rate (CR + PR)” value [8] was 1 (100.0%), the “Progressive disease (PD)” value [8] was 0% and the “Confirmed complete response (CR)” value [9] was 0%. The “Confirmed partial response (PR)” value [9] was 1 (100.0%), the “Disease control rate (CR + PR + SD)” value [9] was 1 (100.0%) and the Inevaluable [9] was 0%. For the same molecule, the “Objective response rate (CR + PR)” value [9] was 1 (100.0%), the “Progressive disease (PD)” value [9] was 0% and the “Confirmed complete response (CR)” value [10] was 0%. The “Confirmed partial response (PR)” value [10] was 1 (100.0%), the “Disease control rate (CR + PR + SD)” value [10] was 1 (100.0%) and the Inevaluable [10] was 0%. The “Objective response rate (CR + PR)” value [10] was 1 (100.0%), the “Progressive disease (PD)” value [10] was 0% and the “Confirmed complete response (CR)” value [11] was 0%. For the same molecule, the “Confirmed partial response (PR)” value [11] was 0%, the “Disease control rate (CR + PR + SD)” value [11] was 0% and the Inevaluable [11] was 1 (100.0%). The “Objective response rate (CR + PR)” value [11] was 0%, the “Progressive disease (PD)” value [11] was 0% and the “Confirmed complete response (CR)” value [12] was 0%. The “Confirmed partial response (PR)” value [12] was 0%, the “Disease control rate (CR + PR + SD)” value [12] was 1 (100.0%) and the Inevaluable [12] was 0%. For the same molecule, the “Objective response rate (CR + PR)” value [12] was 0%, the “Progressive disease (PD)” value [12] was 0% and the “Confirmed complete response (CR)” value [13] was 0%. For the same molecule, the “Confirmed partial response (PR)” value [13] was 1 (100.0%).
